Results published in patent US7501425B1, “Bicyclic pyrimidines and bicyclic 3,4-dihydropyprimidines as inhibitors of cellular proliferation” (Warner Lambert Company, priority 1999, dated 2009).
pIC50: −log10 of the molar value.

How the values were obtained:
[1] = target: cdk4/D (Homo sapiens, UniProt P11802); experiment: Cyclin-Dependent Kinase 4 (cdk4) enzyme assay, 32P incorporation; assay type: biochemical; settings: for pIC50: 25 μM ATP, retinoblastoma substrate
Method: A typical assay, for instance, measures inhibitory activity against the cyclin D dependent kinase 4 enzyme (cdk4/D). […] The cdk4 assay was carried out as follows.
Cyclin-Dependent Kinase 4 (cdk4) Assay
Enzyme assays for IC50 determinations (Tables 1 and 2) and kinetic evaluation were performed in 96 well filter plates (Millipore MADVN6550). The total volume was 0.1 mL containing a final concentration of 20 mM TRIS (tris[hydroxymethyl]aminomethane), at pH 7.4, 50 mM NaCl, 1 mM dithiothreitol, 10 mM MgCl2, 25 μM ATP containing 0.25 μCi of [^32P]ATP, 20 ng of cdk4, 1 μg of retinoblastoma, and appropriate dilutions of a compound of the present invention. All components except the ATP were added to the wells, and the plate was placed on a plate mixer for 2 minutes. The reaction was started by adding [^32P]ATP and the plate was incubated at 25° C. for 15 minutes. The reaction was terminated by addition of 0.1 mL of 20% trichloroacetic acid (TCA). The plate was kept at 4° C. for at least 1 hour to allow the substrate to precipitate. The wells were then washed five times with 0.2 mL of 10% TCA and ^32p incorporation was determined with a beta plate counter (Wallac Inc., Gaithersburg. MD).

[2] = target: cdk2/cyclinE (Homo sapiens, UniProt P24941); experiment: Cyclin-dependent kinase assay cdk2/cyclinE; assay type: biochemical; settings: for pIC50: read-out: cdk2/E IC50; for inhibition at 40 µM: read-out: cdk2/E % Inhibition at 40 μM
Method: (§1) Cyclin-Dependent Kinase Assays (cdk2/cyclinE, cdk2/cyclinA, cdc2/cyclinB)
(§2) All components except the ATP were added to the wells, and the plate was placed on a plate mixer for 2 minutes. The reaction was begun by addition of [^32P]ATP, and the plate was incubated at 25° C. for 15 minutes. The reaction was terminated by addition of 0.1 mL of 20% TCA. The plate was kept at 4° C. for at least 1 hour to allow the substrate to precipitate. The wells were then washed five times with 0.2 mL of 10% TCA and ^32P incorporation determined with a beta plate counter (Wallac Inc., Gaithersburg, Md.).

[3] = target: cdk2/cyclinA (Homo sapiens, UniProt P24941); experiment: Cyclin-dependent kinase assay cdk2/cyclinA; assay type: biochemical
Method: as §1, §2

[4] = target: cdc2/cyclinB (Homo sapiens, UniProt P06493); experiment: Cyclin-dependent kinase assay cdc2/cyclinB (cdk1/B); assay type: biochemical
Sequence of cdc2/cyclinB (P06493 whole entry, species assumed): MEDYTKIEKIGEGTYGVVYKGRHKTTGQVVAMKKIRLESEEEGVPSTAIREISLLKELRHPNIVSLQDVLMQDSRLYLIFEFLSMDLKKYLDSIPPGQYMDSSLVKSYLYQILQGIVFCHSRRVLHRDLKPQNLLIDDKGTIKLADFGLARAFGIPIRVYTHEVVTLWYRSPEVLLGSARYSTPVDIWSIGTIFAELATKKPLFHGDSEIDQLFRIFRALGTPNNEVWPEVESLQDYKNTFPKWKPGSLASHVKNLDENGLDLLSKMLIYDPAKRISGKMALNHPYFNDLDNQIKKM
Sequence of cdc2/cyclinB (P14635 whole entry partner, species assumed): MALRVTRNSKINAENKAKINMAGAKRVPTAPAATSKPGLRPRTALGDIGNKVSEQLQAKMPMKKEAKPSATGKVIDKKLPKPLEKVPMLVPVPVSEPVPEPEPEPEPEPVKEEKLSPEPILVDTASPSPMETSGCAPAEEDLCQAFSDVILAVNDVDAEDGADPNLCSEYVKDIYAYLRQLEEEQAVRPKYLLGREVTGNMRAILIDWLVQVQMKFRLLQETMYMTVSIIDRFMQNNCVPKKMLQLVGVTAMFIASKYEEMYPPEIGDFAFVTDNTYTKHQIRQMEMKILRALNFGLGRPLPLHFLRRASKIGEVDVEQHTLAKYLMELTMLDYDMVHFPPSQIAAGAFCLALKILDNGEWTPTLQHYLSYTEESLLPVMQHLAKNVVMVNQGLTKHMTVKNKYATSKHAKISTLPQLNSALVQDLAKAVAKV
Method: as §1, §2

[5] = target: T1, PDGF-β receptor tyrosine kinase (Mus musculus, UniProt P05622); experiment: PDGF receptor tyrosine kinase assay; assay type: biochemical; settings: intracellular tyrosine kinase domain, SF9 lysate
T1 construct: amplify a fragment of DNA that codes for the intracellular tyrosine kinase domain; made in house; host or cells: SF9 insect cells (baculovirus)
T1 sequence (P05622 599-961 limits assumed): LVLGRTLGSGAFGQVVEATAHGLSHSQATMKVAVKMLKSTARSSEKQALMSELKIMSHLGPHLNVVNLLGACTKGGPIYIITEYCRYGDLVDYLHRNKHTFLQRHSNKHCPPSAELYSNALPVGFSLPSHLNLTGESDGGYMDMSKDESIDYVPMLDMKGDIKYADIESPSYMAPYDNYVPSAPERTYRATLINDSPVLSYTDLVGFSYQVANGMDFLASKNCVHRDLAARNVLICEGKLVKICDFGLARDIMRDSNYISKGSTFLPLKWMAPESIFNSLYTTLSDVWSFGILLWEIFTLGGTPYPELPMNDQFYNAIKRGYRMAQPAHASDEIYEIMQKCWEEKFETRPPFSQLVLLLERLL
Method: The assays used to determine these activities were carried out as follows:
PDGF and FGF Receptor Tyrosine Kinase Assays
PCR primers were designed to amplify a fragment of DNA that codes for the intracellular tyrosine kinase domain. The fragment was inserted into a baculovirus vector, cotransfected with AcMNPV DNA, and the recombinant virus isolated. SF9 insect cells were infected with the virus to overexpress the protein, and the cell lysate was used for the assay. Assays were performed in 96-well plates (100 μL/incubation/well), and conditions were optimized to measure the incorporation of ^32P from γ^32P-ATP into a glutamate-tyrosine co-polymer substrate. Briefly, to each well was added 82.5 μL of incubation buffer containing 25 mM Hepes (pH 7.0), 150 mM NaCl, 0.1% Triton X-100, 0.2 mM PMSF, 0.2 mM Na3VO4, 10 mM MnCl2, and 750 μg/mL of Poly (4:1) glutamate-tyrosine followed by 2.5 μL of inhibitor and 5 μL of enzyme lysate (7.5 μg/μL FGF-TK or 6.0 μg/μL PDGF-TK) to initiate the reaction. Following a 10 minute incubation at 25° C., […] of γ^32P-ATP (0.4 μCi plus 50 μM ATP) was added to each well, and samples were incubated for an additional 10 minutes at 25° C. […] Nonspecific activity was defined as radioactivity retained on the filters following incubation of samples with buffer alone (no enzyme). […]

[6] = target: T2, c-Src (Homo sapiens, UniProt P12931); experiment: c-Src kinase assay; assay type: biochemical; settings: 5 μM ATP, poly GluTyr substrate
T2 construct: made in house; host or cells: baculovirus infected insect cells
T2 sequence (P12931 whole entry, species assumed): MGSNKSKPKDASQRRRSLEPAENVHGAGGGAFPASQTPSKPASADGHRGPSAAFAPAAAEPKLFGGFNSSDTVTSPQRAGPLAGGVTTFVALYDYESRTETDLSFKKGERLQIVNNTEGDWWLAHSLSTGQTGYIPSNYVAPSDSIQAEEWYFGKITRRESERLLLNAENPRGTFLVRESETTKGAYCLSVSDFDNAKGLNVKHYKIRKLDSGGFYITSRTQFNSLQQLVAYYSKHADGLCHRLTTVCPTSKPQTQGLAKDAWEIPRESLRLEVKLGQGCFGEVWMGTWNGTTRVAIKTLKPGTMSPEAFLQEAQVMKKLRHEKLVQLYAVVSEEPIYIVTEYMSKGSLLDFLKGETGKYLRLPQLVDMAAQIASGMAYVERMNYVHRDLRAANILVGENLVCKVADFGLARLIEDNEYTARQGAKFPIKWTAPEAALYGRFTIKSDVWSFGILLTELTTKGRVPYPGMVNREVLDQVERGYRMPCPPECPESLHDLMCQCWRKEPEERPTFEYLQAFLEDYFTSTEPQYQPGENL
Method: Several of the invention compounds have been evaluated in a standard assay to measure their ability to inhibit cellular Src protein kinase (c-Src). […] The assay was carried out as follows:
c-Src kinase was purified from baculovirus infected insect cell lysates using an antipeptide monoclonal antibody directed against the N-terminal amino acids (amino acids 2-17) of c-Src. The antibody, covalently linked to 0.65 μm latex beads, was added to a suspension of insect cell lysis buffer comprised of 150 mM NaCl, 50 mM Tris pH 7.5, 1 mM DTT, 1% NP-40, 2 mM EGTA, 1 mM sodium vanadate, 1 mM PMSF, 1 μg/mL each of leupeptin, pepstatin, and aprotinin. Insect cell lysate containing c-Src protein was incubated with these beads for 3 to 4 hours at 4° C. with rotation. At the end of the lysate incubation, the beads were rinsed three times in lysis buffer, resuspended in lysis buffer containing 10% glycerol, and frozen. These latex beads were thawed, rinsed three times in assay buffer (40 mM Tris, pH 7.5, 5 mM […]) and suspended in the same buffer. In a Millipore 96-well plate with a 0.65 μm polyvinylidine membrane bottom were added the reaction components: 10 μL c-Src beads, 10 μL of 2.5 mg/mL poly GluTyr substrate, 5 μM ATP containing 0.2 μCi labeled ^32P-ATP, 5 μL DMSO containing inhibitors or as a solvent control, and buffer to make the final volume 125 μL. The reaction was started at room temperature by addition of the ATP and quenched 10 minutes later by the addition of 125 μL of 30% TCA, 0.1 M sodium pyrophosphate for 5 minutes on ice. The plate was then filtered and the wells washed with two […] aliquots of 15% TCA, 0.1 M pyrophosphate. The filters were then punched, counted in a liquid scintillation counter, and the data examined for inhibitory activity in comparison to a known inhibitor such as erbstatin. The method is also described in J. Med. Chem., 1994; 37:598-609. Tables 5 and 6 list c-Src inhibitory concentrations (IC50) for representative invention compounds.

Sequence of cdk4/D (P11802 whole entry, species assumed): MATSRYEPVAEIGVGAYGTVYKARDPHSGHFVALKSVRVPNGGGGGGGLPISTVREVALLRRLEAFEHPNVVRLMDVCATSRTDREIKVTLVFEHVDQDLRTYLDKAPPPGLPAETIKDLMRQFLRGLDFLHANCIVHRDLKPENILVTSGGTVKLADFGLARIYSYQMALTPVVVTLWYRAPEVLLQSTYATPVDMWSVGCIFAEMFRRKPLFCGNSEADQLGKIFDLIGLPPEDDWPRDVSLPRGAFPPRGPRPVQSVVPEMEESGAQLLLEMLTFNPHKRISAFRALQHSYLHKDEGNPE
Sequence of cdk4/D (P24385 whole entry partner, species assumed): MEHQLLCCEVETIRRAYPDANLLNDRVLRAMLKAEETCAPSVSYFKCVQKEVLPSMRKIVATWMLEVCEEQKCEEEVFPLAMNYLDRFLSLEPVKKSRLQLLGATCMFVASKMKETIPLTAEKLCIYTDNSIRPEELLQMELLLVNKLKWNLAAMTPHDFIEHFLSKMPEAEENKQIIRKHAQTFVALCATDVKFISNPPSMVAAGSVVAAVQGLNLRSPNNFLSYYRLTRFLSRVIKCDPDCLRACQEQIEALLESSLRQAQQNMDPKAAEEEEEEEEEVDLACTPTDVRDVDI

| SMILES | pIC50 [2] | pIC50 [3] | pIC50 [4] | inhibition at 40 µM [2] [%] | melting point | other results |
| --- | --- | --- | --- | --- | --- | --- |
| O=C1NCc2cnc(Nc3ccc(-n4cccn4)cc3)nc2N1C1CCCC1 [Example 12, 1-Cyclopentyl-7-[4-(pyrazol-1-yl)phenylamino]-3,4-dihydro-pyrimido[4,5-d]pyrimidin-2(1H)-one] | 5.34 | 5.88 | 4.91 |  |  | pIC50 [1]: 5.74 |
| O=C1NCc2cnc(Nc3ccc(-n4cccc4)cc3)nc2N1C1CCCC1 [Example 14, 1-Cyclopentyl-7-[4-(pyrrol-1-yl)phenylamino]-3,4-dihydro-pyrimido[4,5-d]pyrimidin-2(1H)-one] |  |  |  | 38 | > 200 °C (dec.) |  |
| CN1C(=O)NCc2cnc(Nc3ccc(-n4cccn4)cc3)nc21.O=C(O)C(F)(F)F [Example 31, 1-Methyl-7-[4-(pyrazol-1-yl)phenylamino]-3,4-dihydro-pyrimido[4,5-d]pyrimidin-2(1H)-one; Compound with trifluoroacetic acid] |  |  |  | 21 | 250 to 251 °C (dec.) | inhibition at 40 µM [1]: 18% |
| CN1C(=O)NCc2cnc(Nc3ccc(N4CCC(O)CC4)cc3)nc21.O=C(O)C(F)(F)F [Example 29, 7-[4-(4-Hydroxypiperidin-1-yl)phenylamino]-1-methyl-3,4-dihydro-pyrimido[4,5-d]pyrimidin-2(1H)-one; Compound with trifluoroacetic acid] |  |  |  | 28 | 228 to 229 °C (dec.) |  |
| CN1CCN(c2ccc(Nc3ncc4cnc(=O)n(C)c4n3)cc2)CC1 [Example 45, 1-Methyl-7-[4-(4-methylpiperazin-1-yl)phenylamino]pyrimido[4,5-d]pyrimidin-2(1H)-one] |  |  |  | 16 | 259 to 260 °C (dec.) |  |
| CC(C)N1C(=O)NCc2cnc(Nc3ccc(N4CCN(C)CC4)cc3)nc21 [Example 22, 1-Isopropyl-7-[4-(4-methylpiperazin-1-yl)phenylamino]-3,4-dihydro-pyrimido[4,5-d]pyrimidin-2(1H)-one] |  |  |  | 68 | 234 to 237 °C (dec.) | inhibition at 40 µM [4]: 25% |
| CN1CCN(c2ccc(Nc3ncc4c(n3)N(C3CC5CCC3C5)C(=O)NC4)cc2)CC1 (stereo not drawn) [Example 27, 1-Bicyclo[2.2.1]hept-2-yl-7-[4-(4-methylpiperazin-1-yl)phenylamino]-3,4-dihydro-pyrimido[4,5-d]pyrimidin-2(1H)-one (exo)] | 5.96 | 6.28 | 5.01 |  | 251 to 254 °C (dec.) | pIC50 [1]: 6.11 |
| CN1CCN(c2ccc(Nc3ncc4c(n3)N(C)C(=O)NC4)cc2)CC1.O=C(O)C(F)(F)F [Example 28, 1-Methyl-7-[4-(4-methylpiperazin-1-yl)phenylamino]-3,4-dihydro-pyrimido[4,5-d]pyrimidin-2(1H)-one; compound with trifluoroacetic acid] |  |  |  | 22 | 234 to 235 °C (dec.) | inhibition at 40 µM [1]: 15% |
| CC(C)N1C(=O)NCc2cnc(Nc3ccc(N4CCC(CCCN5CCOCC5)CC4)cc3)nc21 [Example 26, 1-Isopropyl-7-{4-[4-(3-(morpholin-1-yl)propyl)piperidin-1-yl]phenylamino}-3,4-dihydro-pyrimido[4,5-d]pyrimidin-2(1H)-one] | 4.57 | 5.19 | < 4.40 |  | 203 to 205 °C (dec.) |  |
| Cn1c(=O)ncc2cnc(Nc3ccc(-n4cccn4)cc3)nc21 [Example 47, 1-Methyl-7-[4-(pyrazol-1-yl)phenylamino]pyrimido[4,5-d]pyrimidin-2(1H)-one] |  |  |  | 41 | > 290 °C (dec.) |  |
| CC(C)n1c(=O)ncc2cnc(Nc3ccc(N4CCN(C)CC4)cc3)nc21 [Example 40, 1-Isopropyl-7-[4-(4-methylpiperazin-1-yl)phenylamino]pyrimido[4,5-d]pyrimidin-2(1H)-one] |  |  |  |  | 228 to 229 °C (dec.) | inhibition at 40 µM [4]: 42% |
| CN(C)C1CCN(c2ccc(Nc3ncc4c(n3)N(C3CCCC3)C(=O)NC4)cc2)CC1 [Example 17, 1-Cyclopentyl-7-{4-[4-(dimethylamino)piperidin-1-yl]phenylamino}-3,4-dihydro-pyrimido[4,5-d]pyrimidin-2(1H)-one] | 5.45 | 5.88 | 4.69 |  | > 200 °C (dec.) | pIC50 [1]: 6.51; pIC50 [5]: 6.49; pIC50 [6]: 6.43 |
| O=C1NCc2cnc(Nc3ccc(N4CCC(CCN5CCOCC5)CC4)cc3)nc2N1C1CCCC1 [Example 21] | 5.52 | 5.86 | 4.44 |  |  | pIC50 [1]: 6.78; pIC50 [5]: 5.96; pIC50 [6]: 5.80 |
| C=CCn1c(=O)c2cnc(Nc3ccc(N4CCN(C)CC4)cc3)nc2n(C(C)C)c1=O [Example 70, 3-Allyl-1-isopropyl-7-[4-(4-methylpiperazin-1-yl)phenylamino]-1H-pyrimido[4,5-d]pyrimidine-2,4-dione] |  |  |  | 0 | 176 to 177 °C |  |
| C=CCn1c(=O)c2cnc(Nc3ccc(OCCN(CC)CC)cc3)nc2n(C(C)C)c1=O [Example 72, 3-Allyl-7-[4-(2-Diethylaminoethoxy)phenylamino]-1-isopropyl-1H-pyrimido[4,5-d]pyrimidine-2,4-dione] |  |  |  | 0 | 90 to 96 °C |  |
| C[S+]([O-])c1ncc2c(n1)N(C1CCCC1)C(=O)NC2 (centres unmarked) [Example 5, 1-Cyclopentyl-7-methanesulfinyl-3,4-dihydro-pyrimido[4,5-d]pyrimidin-2(1H)-one] |  |  |  |  | 235 to 236 °C (dec.) |  |
